Measurements reported in the NIST ThermoML archive (doi:10.1016/j.jct.2017.01.016).

Assay: xn = mol fraction of the nth substance listed
Settings: 101 kPa, Liquid; for viscosity: Capillary tube (Ostwald / Ubbelohde) method; for speed of sound: Frequency=3 MHz, Linear variable-path acoustic interferometer

C1COCCO1 [1,4-dioxane] + Cc1ccccc1
Settings | speed of sound [m/s] | viscosity [mPa·s]
293.15 K, x1 = 0.0688 | 1330.1 | 0.6346
293.15 K, x1 = 0.1373 | 1331.5 | 0.6812
293.15 K, x1 = 0.2112 | 1333 | 0.732
293.15 K, x1 = 0.2858 | 1334.8 | 0.784
293.15 K, x1 = 0.3552 | 1336.5 | 0.8327
293.15 K, x1 = 0.4361 | 1338.6 | 0.8901
293.15 K, x1 = 0.5064 | 1340.7 | 0.9405
293.15 K, x1 = 0.5819 | 1343.2 | 0.9951
293.15 K, x1 = 0.6506 | 1346 | 1.045
293.15 K, x1 = 0.7212 | 1349.1 | 1.097
293.15 K, x1 = 0.7903 | 1352.5 | 1.148
293.15 K, x1 = 0.864 | 1356.9 | 1.203
293.15 K, x1 = 0.9336 | 1361.8 | 1.256
293.15 K, x1 = 1 | 1367.2 | 1.306
298.15 K, x1 = 0.0688 | 1308.4 | 0.5952
298.15 K, x1 = 0.1373 | 1309.5 | 0.6366
298.15 K, x1 = 0.2112 | 1310.9 | 0.682
298.15 K, x1 = 0.2858 | 1312.4 | 0.7282
298.15 K, x1 = 0.3552 | 1313.9 | 0.7716
298.15 K, x1 = 0.4361 | 1315.9 | 0.8229
298.15 K, x1 = 0.5064 | 1317.9 | 0.8679
298.15 K, x1 = 0.5819 | 1320.4 | 0.9166
298.15 K, x1 = 0.6506 | 1323.2 | 0.9613
298.15 K, x1 = 0.7212 | 1326.3 | 1.008
298.15 K, x1 = 0.7903 | 1329.8 | 1.053
298.15 K, x1 = 0.864 | 1334.2 | 1.103
298.15 K, x1 = 0.9336 | 1339.1 | 1.15
298.15 K, x1 = 1 | 1344.7 | 1.195
303.15 K, x1 = 0.0688 | 1286.3 | 0.56
303.15 K, x1 = 0.1373 | 1287.2 | 0.597
303.15 K, x1 = 0.2112 | 1288.4 | 0.6373
303.15 K, x1 = 0.2858 | 1289.7 | 0.6785
303.15 K, x1 = 0.3552 | 1291.2 | 0.7173
303.15 K, x1 = 0.4361 | 1293.2 | 0.7631
303.15 K, x1 = 0.5064 | 1295.2 | 0.8033
303.15 K, x1 = 0.5819 | 1297.8 | 0.8469
303.15 K, x1 = 0.6506 | 1300.6 | 0.887
303.15 K, x1 = 0.7212 | 1303.9 | 0.9286
303.15 K, x1 = 0.7903 | 1307.5 | 0.9696
303.15 K, x1 = 0.864 | 1312.2 | 1.014
303.15 K, x1 = 0.9336 | 1317.3 | 1.056
303.15 K, x1 = 1 | 1323.1 | 1.096
308.15 K, x1 = 0.0688 | 1264.8 | 0.5284
308.15 K, x1 = 0.1373 | 1265.5 | 0.5619
308.15 K, x1 = 0.2112 | 1266.5 | 0.5984
308.15 K, x1 = 0.2858 | 1267.7 | 0.6357
308.15 K, x1 = 0.3552 | 1269 | 0.6709
308.15 K, x1 = 0.4361 | 1270.9 | 0.7124
308.15 K, x1 = 0.5064 | 1272.9 | 0.7489
308.15 K, x1 = 0.5819 | 1275.4 | 0.7885
308.15 K, x1 = 0.6506 | 1278.2 | 0.8249
308.15 K, x1 = 0.7212 | 1281.6 | 0.8627
308.15 K, x1 = 0.7903 | 1285.3 | 0.8998
308.15 K, x1 = 0.864 | 1290.1 | 0.9399
308.15 K, x1 = 0.9336 | 1295.3 | 0.978
308.15 K, x1 = 1 | 1301.2 | 1.014
313.15 K, x1 = 0.0688 | 1242.8 | 0.4969
313.15 K, x1 = 0.1373 | 1243.4 | 0.5278
313.15 K, x1 = 0.2112 | 1244.3 | 0.5615
313.15 K, x1 = 0.2858 | 1245.4 | 0.596
313.15 K, x1 = 0.3552 | 1246.7 | 0.6284
313.15 K, x1 = 0.4361 | 1248.6 | 0.6666
313.15 K, x1 = 0.5064 | 1250.6 | 0.7003
313.15 K, x1 = 0.5819 | 1253.2 | 0.7368
313.15 K, x1 = 0.6506 | 1256 | 0.7702
313.15 K, x1 = 0.7212 | 1259.4 | 0.805
313.15 K, x1 = 0.7903 | 1263.3 | 0.8393
313.15 K, x1 = 0.864 | 1268.2 | 0.8762
313.15 K, x1 = 0.9336 | 1273.6 | 0.9114
313.15 K, x1 = 1 | 1279.7 | 0.945
318.15 K, x1 = 0.0688 | 1221 | 0.467
318.15 K, x1 = 0.1373 | 1221.5 | 0.4958
318.15 K, x1 = 0.2112 | 1222.3 | 0.5272
318.15 K, x1 = 0.2858 | 1223.3 | 0.5593
318.15 K, x1 = 0.3552 | 1224.6 | 0.5895
318.15 K, x1 = 0.4361 | 1226.5 | 0.6251
318.15 K, x1 = 0.5064 | 1228.6 | 0.6564
318.15 K, x1 = 0.5819 | 1231.2 | 0.6903
318.15 K, x1 = 0.6506 | 1234.1 | 0.7215
318.15 K, x1 = 0.7212 | 1237.6 | 0.7539
318.15 K, x1 = 0.7903 | 1241.6 | 0.7857
318.15 K, x1 = 0.864 | 1246.7 | 0.82
318.15 K, x1 = 0.9336 | 1252.3 | 0.8527
318.15 K, x1 = 1 | 1258.6 | 0.884

C1COCCO1 [1,4-dioxane] + c1ccccc1
Settings | speed of sound [m/s] | viscosity [mPa·s]
293.15 K, x1 = 0.0713 | 1329.8 | 0.6955
293.15 K, x1 = 0.1403 | 1334.5 | 0.7421
293.15 K, x1 = 0.2123 | 1339.4 | 0.7905
293.15 K, x1 = 0.2809 | 1343.6 | 0.8364
293.15 K, x1 = 0.3528 | 1347.9 | 0.8842
293.15 K, x1 = 0.4195 | 1351.5 | 0.9283
293.15 K, x1 = 0.5037 | 1355.8 | 0.9838
293.15 K, x1 = 0.58 | 1359.2 | 1.034
293.15 K, x1 = 0.6504 | 1362.2 | 1.08
293.15 K, x1 = 0.7197 | 1364.2 | 1.125
293.15 K, x1 = 0.7822 | 1365.4 | 1.165
293.15 K, x1 = 0.8561 | 1366.9 | 1.213
293.15 K, x1 = 0.9287 | 1367.4 | 1.26
293.15 K, x1 = 1 | 1367.2 | 1.306
298.15 K, x1 = 0.0713 | 1304 | 0.6485
298.15 K, x1 = 0.1403 | 1308.1 | 0.6905
298.15 K, x1 = 0.2123 | 1312.5 | 0.7339
298.15 K, x1 = 0.2809 | 1316.5 | 0.775
298.15 K, x1 = 0.3528 | 1320.5 | 0.8179
298.15 K, x1 = 0.4195 | 1324 | 0.8574
298.15 K, x1 = 0.5037 | 1328.2 | 0.907
298.15 K, x1 = 0.58 | 1332 | 0.9517
298.15 K, x1 = 0.6504 | 1335.1 | 0.9928
298.15 K, x1 = 0.7197 | 1337.5 | 1.033
298.15 K, x1 = 0.7822 | 1339.8 | 1.069
298.15 K, x1 = 0.8561 | 1342 | 1.112
298.15 K, x1 = 0.9287 | 1343.7 | 1.154
298.15 K, x1 = 1 | 1344.7 | 1.195
303.15 K, x1 = 0.0713 | 1279.4 | 0.6068
303.15 K, x1 = 0.1403 | 1283 | 0.6446
303.15 K, x1 = 0.2123 | 1287 | 0.6836
303.15 K, x1 = 0.2809 | 1290.6 | 0.7206
303.15 K, x1 = 0.3528 | 1294.2 | 0.7591
303.15 K, x1 = 0.4195 | 1297.6 | 0.7946
303.15 K, x1 = 0.5037 | 1301.8 | 0.839
303.15 K, x1 = 0.58 | 1305.7 | 0.879
303.15 K, x1 = 0.6504 | 1309.2 | 0.9157
303.15 K, x1 = 0.7197 | 1312.3 | 0.9517
303.15 K, x1 = 0.7822 | 1315.1 | 0.9841
303.15 K, x1 = 0.8561 | 1318.2 | 1.022
303.15 K, x1 = 0.9287 | 1320.8 | 1.059
303.15 K, x1 = 1 | 1323.1 | 1.096
308.15 K, x1 = 0.0713 | 1255.4 | 0.5686
308.15 K, x1 = 0.1403 | 1258.7 | 0.6033
308.15 K, x1 = 0.2123 | 1262 | 0.6392
308.15 K, x1 = 0.2809 | 1265.1 | 0.673
308.15 K, x1 = 0.3528 | 1268.7 | 0.7082
308.15 K, x1 = 0.4195 | 1272 | 0.7406
308.15 K, x1 = 0.5037 | 1276.1 | 0.7812
308.15 K, x1 = 0.58 | 1280.2 | 0.8176
308.15 K, x1 = 0.6504 | 1284 | 0.851
308.15 K, x1 = 0.7197 | 1287.4 | 0.8837
308.15 K, x1 = 0.7822 | 1290.8 | 0.9131
308.15 K, x1 = 0.8561 | 1294.5 | 0.9477
308.15 K, x1 = 0.9287 | 1297.9 | 0.9815
308.15 K, x1 = 1 | 1301.2 | 1.014
313.15 K, x1 = 0.0713 | 1231.7 | 0.532
313.15 K, x1 = 0.1403 | 1234.3 | 0.5644
313.15 K, x1 = 0.2123 | 1237.2 | 0.5979
313.15 K, x1 = 0.2809 | 1240.5 | 0.6294
313.15 K, x1 = 0.3528 | 1244 | 0.6621
313.15 K, x1 = 0.4195 | 1247.1 | 0.6921
313.15 K, x1 = 0.5037 | 1251.3 | 0.7297
313.15 K, x1 = 0.58 | 1255.5 | 0.7634
313.15 K, x1 = 0.6504 | 1259.4 | 0.7943
313.15 K, x1 = 0.7197 | 1263.5 | 0.8245
313.15 K, x1 = 0.7822 | 1266.8 | 0.8516
313.15 K, x1 = 0.8561 | 1271.2 | 0.8835
313.15 K, x1 = 0.9287 | 1275.3 | 0.9146
313.15 K, x1 = 1 | 1279.7 | 0.945
318.15 K, x1 = 0.0713 | 1209.6 | 0.4993
318.15 K, x1 = 0.1403 | 1211.9 | 0.5297
318.15 K, x1 = 0.2123 | 1214.5 | 0.5611
318.15 K, x1 = 0.2809 | 1217.2 | 0.5906
318.15 K, x1 = 0.3528 | 1220.5 | 0.6211
318.15 K, x1 = 0.4195 | 1223.6 | 0.6492
318.15 K, x1 = 0.5037 | 1227.9 | 0.6842
318.15 K, x1 = 0.58 | 1232.1 | 0.7156
318.15 K, x1 = 0.6504 | 1236 | 0.7443
318.15 K, x1 = 0.7197 | 1240.1 | 0.7724
318.15 K, x1 = 0.7822 | 1243.9 | 0.7975
318.15 K, x1 = 0.8561 | 1248.8 | 0.8271
318.15 K, x1 = 0.9287 | 1253.6 | 0.8559
318.15 K, x1 = 1 | 1258.6 | 0.884
